Experimental data reported in the CombiSolv-Exp solvation set (Vermeire and Green 2021).
Each block holds one molecule with its values, some of them ahead of it.

Assay: solvent given as SMILES
[1] = in CCCCCCCCC=CCCCCCCCC(=O)OCC(COC(=O)CCCCCCCC=CCCCCCCCC)OC(=O)CCCCCCCC=CCCCCCCCC

SMILES: CCCCBr
- solvation free energy, 298 K (in C=CCCCCCCCCCCCCCC): -4.19 kcal/mol
- solvation free energy, 298 K (in CC(C)(C)O): -4.09 kcal/mol
- solvation free energy, 298 K (in CC(C)CO): -4.15 kcal/mol
- solvation free energy, 298 K (in CCC(C)O): -4.19 kcal/mol
- solvation free energy, 298 K (in CCCCCCCCCCO): -4.19 kcal/mol
- solvation free energy, 298 K (in CCCCCCCCO): -4.22 kcal/mol
- solvation free energy, 298 K (in CCO): -4.22 kcal/mol
- solvation free energy, 298 K (in ClC(Cl)(Cl)Cl): -4.75 kcal/mol
- solvation free energy, 298 K (in O): -0.34 kcal/mol

SMILES: c1ccc(Cn2ccnc2)cc1
- solvation free energy, 298 K (in O): -7.63 kcal/mol

SMILES: CCOP(=S)(OCC)Oc1nc(Cl)c(Cl)cc1Cl
- solvation free energy, 298 K [1]: -14.4 kcal/mol

SMILES: C=CC1(C)CCC(C(=C)C)CC1C(=C)C (centres undefined)
- solvation free energy, 298 K (in O): -0.42 kcal/mol

SMILES: Cc1ccc(O)c(O)c1
- solvation free energy, 298 K (in CCCCCC): -6.99 kcal/mol
- solvation free energy, 298 K (in CCCCCCC): -7.05 kcal/mol
- solvation free energy, 298 K (in CCCCCCCC): -7.02 kcal/mol
- solvation free energy, 298 K (in Cc1ccc(C)cc1): -9.05 kcal/mol
- solvation free energy, 298 K (in Cc1cccc(C)c1): -9.05 kcal/mol
- solvation free energy, 298 K (in Cc1ccccc1C): -9.05 kcal/mol

SMILES: O=C(O)c1ccccc1Cl
- solvation free energy, 298 K (in CC(C)=O): -10.4 kcal/mol
- solvation free energy, 298 K (in CN(C)C=O): -11.1 kcal/mol
- solvation free energy, 298 K (in O): -7.53 kcal/mol

SMILES: Brc1cc(Br)c(Br)cc1Br
- solvation free energy, 298 K [1]: -9.71 kcal/mol
- solvation free energy, 298 K (in O): -2.54 kcal/mol

SMILES: C=C1CCC(C(C)C)c2cc(C)ccc21 (centres undefined)
- solvation free energy, 298 K (in O): -1.08 kcal/mol

SMILES: Ic1ccccc1
- solvation free energy, 298 K (in C1CCOC1): -7.38 kcal/mol
- solvation free energy, 298 K (in C1COCCO1): -7.22 kcal/mol
- solvation free energy, 298 K (in CCCCCCC): -6.27 kcal/mol
- solvation free energy, 298 K (in CCCCCCCCCCCCCCCC): -6.11 kcal/mol
- solvation free energy, 298 K (in CN(C)C=O): -7.09 kcal/mol
- solvation free energy, 298 K (in ClC(Cl)(Cl)Cl): -6.81 kcal/mol
- solvation free energy, 298 K (in N#Cc1ccccc1): -6.98 kcal/mol
- solvation free energy, 298 K (in O): -1.75 kcal/mol
- solvation free energy, 298 K (in OCCO): -5.28 kcal/mol

SMILES: Cc1cccc(C)c1
- solvation free energy, 298 K (in CC#N): -5.18 kcal/mol
- solvation free energy, 298 K (in CC(C)CC(C)(C)C): -5.12 kcal/mol
- solvation free energy, 298 K (in CC(O)CO): -4.13 kcal/mol
- solvation free energy, 298 K (in CCCCCCC): -5.39 kcal/mol
- solvation free energy, 298 K (in CCCCCCCCCCCCCCCC): -5.27 kcal/mol
- solvation free energy, 298 K (in CCCCCCCCO): -5.16 kcal/mol
- solvation free energy, 298 K (in CCCCOC(C)=O): -6.06 kcal/mol
- solvation free energy, 298 K (in CNC=O): -4.82 kcal/mol
- solvation free energy, 298 K (in COCCO): -5.09 kcal/mol
- solvation free energy, 298 K (in ClCCCl): -5.98 kcal/mol
- solvation free energy, 298 K (in NC=O): -3.29 kcal/mol
- solvation free energy, 298 K (in NCCO): -3.85 kcal/mol
- solvation free energy, 298 K (in O): -0.78 kcal/mol
- solvation free energy, 298 K (in O=CN1CCOCC1): -5.03 kcal/mol
- solvation free energy, 298 K (in OCCO): -3.42 kcal/mol
- solvation free energy, 298 K (in OCCOCCO): -4.26 kcal/mol
- solvation free energy, 298 K (in OCCOCCOCCO): -4.4 kcal/mol
- solvation free energy, 298 K (in c1ccccc1): -5.99 kcal/mol

SMILES: CCCCN(CC)N=O
- solvation free energy, 298 K (in CC(C)CC(C)(C)C): -6.49 kcal/mol
- solvation free energy, 298 K (in O): -5.25 kcal/mol

SMILES: Cc1ccc2c(C)ccc(C(C)C)c2c1
- solvation free energy, 298 K (in O): -2.5 kcal/mol

SMILES: CC(C)I
- solvation free energy, 298 K (in CCO): -3.98 kcal/mol
- solvation free energy, 298 K (in O): -0.46 kcal/mol

SMILES: CCCCCCCCCCOC(=O)c1ccccc1C(=O)OCCCCCCCCCC
- solvation free energy, 298 K (in O): -6.22 kcal/mol

SMILES: Clc1ccc(-c2ccc(Cl)cc2)cc1
- solvation free energy, 298 K [1]: -10.9 kcal/mol
- solvation free energy, 298 K (in CCCCCCCCO): -10.7 kcal/mol
- solvation free energy, 298 K (in O): -2.91 kcal/mol

SMILES: ClCCCCCl
- solvation free energy, 298 K (in CC(C)=O): -6.56 kcal/mol
- solvation free energy, 298 K (in O): -2.32 kcal/mol

SMILES: ClC=CCl
- solvation free energy, 298 K (in COC(C)=O): -3.98 kcal/mol
- solvation free energy, 298 K (in ClCCCl): -3.71 kcal/mol

SMILES: COc1ccc(C=O)cc1O
- solvation free energy, 298 K (in O): -9.04 kcal/mol

SMILES: C=CCCl
- solvation free energy, 298 K (in O): -0.57 kcal/mol

SMILES: O=C1CCCC1
- solvation free energy, 298 K (in CCCCCCC): -4.53 kcal/mol
- solvation free energy, 298 K (in CCCCCCCCCCCCCCCC): -4.22 kcal/mol
- solvation free energy, 298 K (in CCCCCCCCO): -5.02 kcal/mol
- solvation free energy, 298 K (in CCCCCl): -5.46 kcal/mol
- solvation free energy, 298 K (in CCCCOCCCC): -4.82 kcal/mol
- solvation free energy, 298 K (in ClC(Cl)(Cl)Cl): -5.54 kcal/mol
- solvation free energy, 298 K (in ClCCCl): -6.26 kcal/mol
- solvation free energy, 298 K (in O): -4.72 kcal/mol
- solvation free energy, 298 K (in [2H]O[2H]): -4.75 kcal/mol

SMILES: C=C1CCC2C1C1C(C(C)C)CCC21C (centres undefined)
- solvation free energy, 298 K (in O): 1.19 kcal/mol

SMILES: COc1ccc2cc(C(C)C(=O)O)ccc2c1 (centres undefined)
- solvation free energy, 298 K (in C1CCOC1): -17.9 kcal/mol
- solvation free energy, 298 K (in C1COCCO1): -17.7 kcal/mol
- solvation free energy, 298 K (in CC(C)CCO): -16.4 kcal/mol
- solvation free energy, 298 K (in CC(C)CO): -16.3 kcal/mol
- solvation free energy, 298 K (in CC(C)O): -16.6 kcal/mol
- solvation free energy, 298 K (in CCC(C)O): -16.6 kcal/mol
- solvation free energy, 298 K (in CCCC(C)O): -16.5 kcal/mol
- solvation free energy, 298 K (in CCCCCCCCCCO): -16.2 kcal/mol
- solvation free energy, 298 K (in CCCCCCCO): -16.5 kcal/mol
- solvation free energy, 298 K (in CCCCCCO): -16.5 kcal/mol
- solvation free energy, 298 K (in CCCCCO): -16.5 kcal/mol
- solvation free energy, 298 K (in CCCCO): -16.6 kcal/mol
- solvation free energy, 298 K (in CCCCOC(C)=O): -16.6 kcal/mol
- solvation free energy, 298 K (in CCCO): -16.6 kcal/mol
- solvation free energy, 298 K (in CCO): -16.7 kcal/mol
- solvation free energy, 298 K (in CCOC(C)=O): -17.1 kcal/mol
- solvation free energy, 298 K (in CCOCC): -16.7 kcal/mol
- solvation free energy, 298 K (in CO): -16.7 kcal/mol
- solvation free energy, 298 K (in COC(C)=O): -17 kcal/mol

More lines, now with the values ahead:

- solvation free energy, 298 K (in CCCO): -4.64 kcal/mol
SMILES: CCC(C)CCC(C)C (centres undefined)

- solvation free energy, 298 K (in CN(C)C=O): -10.8 kcal/mol
- solvation free energy, 298 K (in O): -6.79 kcal/mol
SMILES: COC(=O)c1cccc([N+](=O)[O-])c1

- solvation free energy, 298 K (in O): -6.33 kcal/mol
SMILES: CC=Cc1ccc(O)c(OC)c1

- solvation free energy, 298 K (in O): -0.95 kcal/mol
SMILES: CCc1ccc(C)cc1

- solvation free energy, 298 K (in CCOC(C)=O): -13.6 kcal/mol
- solvation free energy, 298 K (in O): -13 kcal/mol
SMILES: O=C(O)Cc1ccc(O)cc1

- solvation free energy, 298 K (in O): 4.12 kcal/mol
SMILES: CCCCCCCCCCCCC

- solvation free energy, 298 K (in O): -3.07 kcal/mol
SMILES: CCCC(=O)CC

- solvation free energy, 298 K (in O): -9.31 kcal/mol
SMILES: CCCCCC(N)=O

- solvation free energy, 298 K (in O): -6.02 kcal/mol
SMILES: CCNCc1ccc(C)cc1

- solvation free energy, 298 K (in C1COCCO1): -12.3 kcal/mol
SMILES: Nc1ccc(O)cc1

- solvation free energy, 298 K (in C=CCCCCCCC=C): -9.41 kcal/mol
- solvation free energy, 298 K (in O): -13.7 kcal/mol
SMILES: O=C(O)C(O)c1ccccc1 (centres undefined)
